The source of these data is ChEMBL document CHEMBL5724914, “Linking interpersonal differences in gut microbiota composition and drug biotransformation activity” (2024).

Data set [1] can be described thus: The drug is tested on WLS-069 corresponding to human gut metagenome with ENA study accession number: PRJEB37062 and ENA sample accession number: ERS12561748 for biotransformation under anaerobic condition. The drug concentrations were measured over 9 timepoints collected between 0 and 24 hours of incubation by liquid-chromatography-coupled mass spectrometry (LC–MS). The conditions noted are these: 2 µM.

Data set [2] can be described thus: The drug is tested on WLS-039 corresponding to human gut metagenome with ENA study accession number: PRJEB37062 and ENA sample accession number: ERS12561746 for biotransformation under anaerobic condition. The drug concentrations were measured over 9 timepoints collected between 0 and 24 hours of incubation by liquid-chromatography-coupled mass spectrometry (LC–MS). The conditions noted are these: 2 µM.

Data set [3] can be described thus: The drug is tested on WLS-350 corresponding to human gut metagenome with ENA study accession number: PRJEB37062 and ENA sample accession number: ERS12561789 for biotransformation under anaerobic condition. The drug concentrations were measured over 9 timepoints collected between 0 and 24 hours of incubation by liquid-chromatography-coupled mass spectrometry (LC–MS). The conditions noted are these: 2 µM.

The nature of data set [4]: The drug is tested on WLS-010 corresponding to human gut metagenome with ENA study accession number: PRJEB37062 and ENA sample accession number: ERS12561743 for biotransformation under anaerobic condition. The drug concentrations were measured over 9 timepoints collected between 0 and 24 hours of incubation by liquid-chromatography-coupled mass spectrometry (LC–MS). The conditions noted are these: 2 µM.

The conditions of data set [5]: human gut metagenome, 24 h, 2 µM.
Data set [6] in a line: The drug is tested on Z-005 corresponding to metagenome with ENA study accession number: PRJEB37062 and ENA sample accession number: ERS12561805 for biotransformation under anaerobic condition. The drug concentrations were measured over 9 timepoints collected between 0 and 24 hours of incubation by liquid-chromatography-coupled mass spectrometry (LC–MS). The conditions noted are these: 2 µM.

Data set [7] in a line: The drug is tested on WLS-038 corresponding to human gut metagenome with ENA study accession number: PRJEB37062 and ENA sample accession number: ERS12561745 for biotransformation under anaerobic condition. The drug concentrations were measured over 9 timepoints collected between 0 and 24 hours of incubation by liquid-chromatography-coupled mass spectrometry (LC–MS). The conditions noted are these: 2 µM.

For data set [8] the following is noted: human gut metagenome, 24 h, 2 µM. The source holds these as a separate data set.
Data set [9] can be described thus: The drug is tested on WLS-310 corresponding to human gut metagenome with ENA study accession number: PRJEB37062 and ENA sample accession number: ERS12561785 for biotransformation under anaerobic condition. The drug concentrations were measured over 9 timepoints collected between 0 and 24 hours of incubation by liquid-chromatography-coupled mass spectrometry (LC–MS). The conditions noted are these: 2 µM.

For data set [10] the following is noted: human gut metagenome, 24 h, 2 µM. The source holds these as a separate data set.
The conditions of data set [11]: human gut metagenome, 24 h, 2 µM. This is another data set of the same source.
The conditions of data set [12]: human gut metagenome, 24 h, 2 µM. This is another data set of the same source.
For data set [13] the following is noted: human gut metagenome, 24 h, 2 µM. The source holds these as a separate data set.
The conditions of data set [14]: human gut metagenome, 24 h, 2 µM. The source holds these as a separate data set.
The conditions of data set [15]: human gut metagenome, 24 h, 2 µM. This is another data set of the same source.
The conditions of data set [16]: human gut metagenome, 24 h, 2 µM. The source holds these as a separate data set.
The conditions of data set [17]: human gut metagenome, 24 h, 2 µM. This is another data set of the same source.
The conditions of data set [18]: human gut metagenome, 24 h, 2 µM. This is another data set of the same source.
A short description of data set [19]: The drug is tested on WLS-370 corresponding to human gut metagenome with ENA study accession number: PRJEB37062 and ENA sample accession number: ERS12561793 for biotransformation under anaerobic condition. The drug concentrations were measured over 9 timepoints collected between 0 and 24 hours of incubation by liquid-chromatography-coupled mass spectrometry (LC–MS). The conditions noted are these: 2 µM.

Data set [20] in a line: The drug is tested on Z-022 corresponding to mouse gut metagenome with ENA study accession number: PRJEB37062 and ENA sample accession number: ERS12561821 for biotransformation under anaerobic condition. The drug concentrations were measured over 9 timepoints collected between 0 and 24 hours of incubation by liquid-chromatography-coupled mass spectrometry (LC–MS). The conditions noted are these: 2 µM.
Also: call rule not given here.

Regarding `CCC1(c2ccc(N)cc2)CCC(=O)NC1=O` (stereo unspecified) [AMINOGLUTETHIMIDE], the “Bacterial Biotransformation” value in data set [1], in data set [2], in data set [3], in data set [4], in data set [5] and in data set [6] was “Compound NOT metabolized” each time. Moreover, the “Bacterial Biotransformation” value in data set [7], in [8], in [9], in [10], in [11] and in data set [12] was “Compound NOT metabolized” in each case. Besides, the “Bacterial Biotransformation” value in [13], in data set [14], in data set [15], in data set [16], in data set [17] and in data set [18] was “Compound NOT metabolized” throughout. Besides, the “Bacterial Biotransformation” value in [19] is reported as “Compound NOT metabolized”.
For the compound `CN1CCc2cccc3c2[C@H]1Cc1ccc(O)c(O)c1-3` [APOMORPHINE], the “Bacterial Biotransformation” value in data set [1], in data set [20], in data set [2], in [3], in data set [4] and in [5] was “Compound NOT metabolized” each time. Further, the “Bacterial Biotransformation” value in data set [7], in data set [8], in [9], in [10], in data set [11] and in [12] was “Compound NOT metabolized” in each case. In addition, the “Bacterial Biotransformation” value in data set [13], in data set [14], in data set [15], in data set [16], in data set [17] and in data set [18] was “Compound NOT metabolized” each time. Also, the “Bacterial Biotransformation” value in [19] was “Compound NOT metabolized”.
For the compound `CC(C)c1c(C(=O)Nc2ccccc2)c(-c2ccccc2)c(-c2ccc(F)cc2)n1CC[C@@H](O)C[C@@H](O)CC(=O)O` [ATORVASTATIN], the “Bacterial Biotransformation” value is “Compound metabolized” in data set [1]; “Compound NOT metabolized” in data set [20]; “Compound metabolized” in data set [2]; “Compound metabolized” in [3]; “Compound metabolized” in data set [5]; “Compound metabolized” in [6]. The “Bacterial Biotransformation” value was “Compound metabolized” in data set [7]; “Compound NOT metabolized” in data set [8]; “Compound metabolized” in data set [9]; “Compound metabolized” in [10]; “Compound metabolized” in data set [11]; “Compound metabolized” in data set [12]. For the same compound, the “Bacterial Biotransformation” value is reported as “Compound metabolized” in data set [13]; “Compound metabolized” in data set [14]; “Compound metabolized” in data set [15]; “Compound NOT metabolized” in data set [16]; “Compound metabolized” in data set [17]; “Compound metabolized” in [18]. The “Bacterial Biotransformation” value in [19] was “Compound metabolized”.
For the compound `CC(=O)O[C@]1(C(C)=O)CC[C@H]2[C@@H]3C=C(Cl)C4=CC(=O)[C@@H]5C[C@@H]5[C@]4(C)[C@H]3CC[C@@]21C` [CYPROTERONE ACETATE], the “Bacterial Biotransformation” value in [1], in data set [2], in [3], in data set [4], in data set [5] and in data set [6] was “Compound metabolized” in each case. Besides, the “Bacterial Biotransformation” value in [7], in [8], in [9], in data set [10], in [11] and in data set [12] was “Compound metabolized” throughout. Further, the “Bacterial Biotransformation” value in data set [13], in [14], in data set [15], in data set [16], in [17] and in data set [18] was “Compound metabolized” throughout. Further, the “Bacterial Biotransformation” value in [19] is listed as “Compound metabolized”.
In the case of `CCN(CC)C(=O)/C(C#N)=C/c1cc(O)c(O)c([N+](=O)[O-])c1` [ENTACAPONE], the “Bacterial Biotransformation” value in data set [20], in data set [6] and in data set [12] was “Compound metabolized” throughout.
As to `CN1C[C@H](C(=O)N[C@]2(C)O[C@@]3(O)[C@@H]4CCCN4C(=O)[C@H](Cc4ccccc4)N3C2=O)C=C2c3cccc4[nH]cc(c34)C[C@H]21.CN1C[C@H](C(=O)N[C@]2(C)O[C@@]3(O)[C@@H]4CCCN4C(=O)[C@H](Cc4ccccc4)N3C2=O)C=C2c3cccc4[nH]cc(c34)C[C@H]21.O=C(O)C(O)C(O)C(=O)O` [ERGOTAMINE TARTRATE], the “Bacterial Biotransformation” value was “Compound metabolized” in [1]; “Compound metabolized” in data set [2]; “Compound metabolized” in data set [3]; “Compound metabolized” in [4]; “Compound metabolized” in [5]; “Compound NOT metabolized” in data set [6]. In addition, the “Bacterial Biotransformation” value in [7] was “Compound NOT metabolized”; in data set [8] it was “Compound metabolized”; in data set [9], “Compound metabolized”; in data set [10], “Compound metabolized”; in [11], “Compound metabolized”; in data set [13] it was “Compound metabolized”. Besides, the “Bacterial Biotransformation” value in data set [14] is reported as “Compound metabolized”; in data set [15], “Compound metabolized”; in data set [16] it was “Compound NOT metabolized”; in data set [17] it was “Compound metabolized”; in [18], “Compound metabolized”; in [19] it was “Compound metabolized”.
With `COc1ccc2[nH]c([S+]([O-])Cc3ncc(C)c(OC)c3C)nc2c1` (stereo unspecified) [OMEPRAZOLE], the “Bacterial Biotransformation” value in data set [1] was “Compound metabolized”; in data set [20], “Compound NOT metabolized”; in [2], “Compound metabolized”; in [3] it was “Compound metabolized”; in [5] it was “Compound metabolized”; in [6], “Compound NOT metabolized”. Moreover, the “Bacterial Biotransformation” value in data set [7], in [8], in [9], in data set [10], in [11] and in data set [12] was “Compound metabolized” in each case. For the same compound, the “Bacterial Biotransformation” value in data set [13], in data set [14], in data set [15], in [16], in data set [17] and in data set [18] was “Compound metabolized” each time. The “Bacterial Biotransformation” value in data set [19] is recorded as “Compound metabolized”.
